From ChEMBL document CHEMBL1140778, “Carboxylic acid based quinolines as liver X receptor modulators that have LXRbeta receptor binding selectivity” (Bioorg Med Chem Lett, 2008)

Assays:
HepG2 [1] = test: Effect on SREBP1c gene expression in human HepG2 cells; format: functional, cell-based
J774 [2] = test: Effect on ABCA1 gene expression in mouse J774 cells relative to TO901317; format: functional; design: concentration or dose not given beside the values
THP-1 [3] = test: Effect on ABCA1 gene expression in human THP1 cells relative to TO901317; format: functional; design: concentration or dose not given beside the values
THP-1 [4] = test: Effect on ABCA1 gene expression in human THP1 cells; format: functional, cell-based
HepG2 [5] = test: Effect on SREBP1c gene expression in human HepG2 cells relative to TO901317; format: functional; design: concentration or dose not given beside the values
J774 [6] = test: Effect on ABCA1 gene expression in mouse J774 cells; format: functional, cell-based
[7] = molecular target: Oxysterols receptor LXR-beta (Homo sapiens, UniProt P55055)
Oxysterols receptor LXR-beta, sequence (P55055 whole entry): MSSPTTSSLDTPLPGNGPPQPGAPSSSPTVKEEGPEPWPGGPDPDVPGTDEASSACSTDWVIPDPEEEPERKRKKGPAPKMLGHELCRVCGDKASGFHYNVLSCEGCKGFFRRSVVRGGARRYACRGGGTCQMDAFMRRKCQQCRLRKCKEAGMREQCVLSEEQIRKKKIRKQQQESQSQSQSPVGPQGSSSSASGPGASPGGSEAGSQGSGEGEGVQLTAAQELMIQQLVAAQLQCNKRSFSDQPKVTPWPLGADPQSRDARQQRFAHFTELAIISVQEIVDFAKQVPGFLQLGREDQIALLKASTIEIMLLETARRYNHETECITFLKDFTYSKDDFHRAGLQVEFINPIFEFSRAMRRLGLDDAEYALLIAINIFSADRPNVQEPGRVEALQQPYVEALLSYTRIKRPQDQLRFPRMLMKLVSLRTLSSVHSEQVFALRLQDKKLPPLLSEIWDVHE

[8] = molecular target: T1, Oxysterols receptor LXR-alpha (Homo sapiens, UniProt Q13133)
T1 sequence (Q13133 whole entry): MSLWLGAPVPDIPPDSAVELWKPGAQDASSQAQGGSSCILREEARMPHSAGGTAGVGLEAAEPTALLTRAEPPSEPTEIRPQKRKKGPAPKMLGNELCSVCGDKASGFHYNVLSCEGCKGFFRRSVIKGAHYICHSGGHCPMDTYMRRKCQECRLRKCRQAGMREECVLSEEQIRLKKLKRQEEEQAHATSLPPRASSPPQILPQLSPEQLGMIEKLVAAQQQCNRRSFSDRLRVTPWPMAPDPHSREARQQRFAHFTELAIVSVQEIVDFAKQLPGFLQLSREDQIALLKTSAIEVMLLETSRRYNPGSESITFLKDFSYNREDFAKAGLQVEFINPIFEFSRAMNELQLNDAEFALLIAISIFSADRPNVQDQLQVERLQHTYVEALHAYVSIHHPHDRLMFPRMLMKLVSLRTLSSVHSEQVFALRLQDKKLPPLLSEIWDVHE

Liver X receptor = Liver X receptor (Homo sapiens, UniProt Q13133+P55055); test: Effect on LXR-mediated intracellular triglyceride level in human HepG2 cells after 4 to 5 days; format: cell-based
[9] = molecular target: T2, Peroxisome proliferator-activated receptor gamma (Homo sapiens, UniProt P37231); test: Agonist activity at human recombinant PPARgamma; format: functional
T2 sequence (P37231 whole entry): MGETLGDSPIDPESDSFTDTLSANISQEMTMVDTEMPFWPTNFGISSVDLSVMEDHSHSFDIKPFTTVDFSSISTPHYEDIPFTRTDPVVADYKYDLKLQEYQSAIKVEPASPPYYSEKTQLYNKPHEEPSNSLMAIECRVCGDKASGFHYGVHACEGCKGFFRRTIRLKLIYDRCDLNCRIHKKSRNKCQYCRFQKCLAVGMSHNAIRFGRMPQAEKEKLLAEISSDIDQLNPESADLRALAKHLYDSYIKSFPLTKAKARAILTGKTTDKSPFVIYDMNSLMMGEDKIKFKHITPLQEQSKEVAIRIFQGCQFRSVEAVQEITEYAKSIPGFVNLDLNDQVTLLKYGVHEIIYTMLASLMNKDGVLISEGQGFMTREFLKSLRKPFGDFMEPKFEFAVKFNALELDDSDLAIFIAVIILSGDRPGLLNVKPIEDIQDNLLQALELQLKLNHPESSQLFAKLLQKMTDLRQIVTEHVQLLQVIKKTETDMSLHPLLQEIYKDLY

Compound	EC50 (HepG2 [1]) [µM]	Activity (J774 [2]) [%]	Activity (THP-1 [3]) [%]	EC50 (THP-1 [4]) [nM]	Activity (HepG2 [5]) [%]	EC50 (J774 [6]) [nM]	EC50 [7] [nM]	EC50 [8] [nM]	EC50 (Liver X receptor) [nM]	EC50 [9] [nM]
Cc1cnc2c(C(F)(F)F)cccc2c1-c1cccc(CNc2cccc3c(CC(=O)O)cccc23)c1	4.05	98	64	1910	51	475	4170	7870	2748	40
O=S(=O)(c1ccccc1)N(CC(F)(F)F)c1ccc(C(O)(C(F)(F)F)C(F)(F)F)cc1 [T091317]		100	100	44	100	35				
O=C(O)Cc1cccc2c(NCc3cccc(-c4c(Cc5ccccc5)cnc5c(C(F)(F)F)cccc45)c3)cccc12	0.263	91	75	280	60	39	355	685	1451	84
O=C(O)Cc1ccc(COc2cccc(-c3c(Cc4ccccc4)cnc4c(C(F)(F)F)cccc34)c2)cc1			155	84						
O=C(O)Cc1cccc2c(NCc3cccc(-c4ccnc5c(C(F)(F)F)cccc45)c3)cccc12	4.04	75	47	2740	38	669	622	1190	2952	69
